Values of other authors, collected in PubChem BioAssay AID1259409 (Chemical Carcinogenesis Research Information System (CCRIS), 2018).

Test system: rodent chemically induced tumor inhibition, incidence and multiplicity
Experiment: CCRIS tumor inhibitor studies
Conditions: Promoter: NONE USED

## O=C(/C=C/c1ccccc1)c1ccccc1
Carcinogen: 4-NITROQUINOLINE-1-OXIDE, 56-57-5, Dose [Inhibitor]: 0, 500 PPM IN DIET FOR 10 WK BEGINNING 1 WK PRIOR TO CARCINOGEN DOSE (STUDY DURATION: 32 WK), Route [Inhibitor]: ORAL, Species: RAT, Strain/Sex: F344/MALE, Target Tissue: Type of Lesion: TONGUE: CARCINOMA, Dose [Carcinogen]: 20 PPM IN DRINKING WATER FOR 8 WK
  tumour outcome (control, treated, inhibition, significance): 9/15 (60%), 3/16 (19%), 68%, p<0.05
Carcinogen: 4-NITROQUINOLINE-1-OXIDE, 56-57-5, Dose [Inhibitor]: 0, 500 PPM IN DIET FOR 10 WK BEGINNING 1 WK PRIOR TO CARCINOGEN DOSE (STUDY DURATION: 32 WK), Route [Inhibitor]: ORAL, Species: RAT, Strain/Sex: F344/MALE, Target Tissue: Type of Lesion: TONGUE: PAPILLOMA, Dose [Carcinogen]: 20 PPM IN DRINKING WATER FOR 8 WK
  tumour outcome (control, treated, inhibition, significance): 4/15 (27%), 1/16 (6%), 78%, not significant
Carcinogen: 4-NITROQUINOLINE-1-OXIDE, 56-57-5, Dose [Inhibitor]: 0, 500 PPM IN DIET FOR 22 WK BEGINNING 1 WK POST CARCINOGEN TREATMENT (STUDY DURATION: 32 WK), Route [Inhibitor]: ORAL, Species: RAT, Strain/Sex: F344/MALE, Target Tissue: Type of Lesion: TONGUE: CARCINOMA, Dose [Carcinogen]: 20 PPM IN DRINKING WATER FOR 8 WK
  tumour outcome (control, treated, inhibition, significance): 9/15 (60%), 3/16 (19%), 68%, p<0.05
Carcinogen: 4-NITROQUINOLINE-1-OXIDE, 56-57-5, Dose [Inhibitor]: 0, 500 PPM IN DIET FOR 22 WK BEGINNING 1 WK POST CARCINOGEN TREATMENT (STUDY DURATION: 32 WK), Route [Inhibitor]: ORAL, Species: RAT, Strain/Sex: F344/MALE, Target Tissue: Type of Lesion: TONGUE: PAPILLOMA, Dose [Carcinogen]: 20 PPM IN DRINKING WATER FOR 8 WK
  tumour outcome (control, treated, inhibition, significance): 4/15 (27%), 0/16 (0%), 100%, p<0.05
Carcinogen: BENZO[A]PYRENE, 50-32-8, Dose [Inhibitor]: 0, 0.2 MG/G IN DIET FOR 21 WK BEGINNING 1 WK POST LAST CARCINOGEN DOSE (STUDY DURATION: 23 WK), Route [Inhibitor]: ORAL, Species: MOUSE, Strain/Sex: STRAIN-A/FEMALE, Target Tissue: Type of Lesion: FORESTOMACH: TUMOR, Dose [Carcinogen]: 2 MG IN 0.2 ML COTTONSEED OIL ONCE EACH ON DAYS 1, 3 AND 7 OF STUDY
  tumour outcome (control, treated, inhibition, significance): 93%, 100%, -8%, not significant
Carcinogen: BENZO[A]PYRENE, 50-32-8, Dose [Inhibitor]: 0, 1 MG/G IN DIET FOR 21 WK BEGINNING 1 WK POST LAST CARCINOGEN DOSE (STUDY DURATION: 23 WK), Route [Inhibitor]: ORAL, Species: MOUSE, Strain/Sex: STRAIN-A/FEMALE, Target Tissue: Type of Lesion: FORESTOMACH: TUMOR, Dose [Carcinogen]: 2 MG IN 0.2 ML COTTONSEED OIL ONCE EACH ON DAYS 1, 3 AND 7 OF STUDY
  tumour outcome (control, treated, inhibition, significance): 93%, 100%, -8%, not significant
Carcinogen: BENZO[A]PYRENE, 50-32-8, Dose [Inhibitor]: 0, 5 MG/G IN DIET FOR 21 WK BEGINNING 1 WK POST LAST CARCINOGEN DOSE (STUDY DURATION: 23 WK), Route [Inhibitor]: ORAL, Species: MOUSE, Strain/Sex: STRAIN-A/FEMALE, Target Tissue: Type of Lesion: FORESTOMACH: TUMOR, Dose [Carcinogen]: 2 MG IN 0.2 ML COTTONSEED OIL ONCE EACH ON DAYS 1, 3 AND 7 OF STUDY
  tumour outcome (control, treated, inhibition, significance): 93%, 100%, -8%, not significant
Carcinogen: BENZO[A]PYRENE, 50-32-8, Dose [Inhibitor]: 0, 10 MG/G IN DIET FOR 21 WK BEGINNING 1 WK POST LAST CARCINOGEN DOSE (STUDY DURATION: 23 WK), Route [Inhibitor]: ORAL, Species: MOUSE, Strain/Sex: STRAIN-A/FEMALE, Target Tissue: Type of Lesion: FORESTOMACH: TUMOR, Dose [Carcinogen]: 2 MG IN 0.2 ML COTTONSEED OIL ONCE EACH ON DAYS 1, 3 AND 7 OF STUDY
  tumour outcome (control, treated, inhibition, significance): 93%, 100%, -8%, not significant
Carcinogen: N-METHYL-N-NITROSOUREA, 684-93-5, Dose [Inhibitor]: 0, 5 MG/G IN DIET FOR 17 WK BEGINNING 1 WK POST CARCINOGEN DOSE (STUDY DURATION: 18 WK), Route [Inhibitor]: ORAL, Species: RAT, Strain/Sex: SPRAGUE-DAWLEY/FEMALE, Target Tissue: Type of Lesion: MAMMARY GLAND: TUMOR, Dose [Carcinogen]: 50 MG/KG BW ONCE
  tumour outcome (control, treated, inhibition, significance): 71%, 36%, 49%, p=0.058
Carcinogen: N-METHYL-N-NITROSOUREA, 684-93-5, Dose [Inhibitor]: 0, 5 MG/G IN DIET STARTING 4 WK POST CARCINOGEN DOSE THEN FED FOR 3 WK ALTERNATING WITH 3 WK ON CONTROL DIET FOR DURATIO, Route [Inhibitor]: ORAL, Species: RAT, Strain/Sex: SPRAGUE-DAWLEY/FEMALE, Target Tissue: Type of Lesion: MAMMARY GLAND: TUMOR, Dose [Carcinogen]: 50 MG/KG BW ONCE
  tumour outcome (control, treated, inhibition, significance): 75%, 38%, 49%, p=0.033

## COc1cc(C[C@@H](CO)[C@H](CO)Cc2ccc(O)c(OC)c2)ccc1O
Carcinogen: 7,12-DIMETHYLBENZ[A]ANTHRACENE, 57-97-6, Dose [Inhibitor]: 0, 1.5 MG IN 1 ML OF DISTILLED WATER 1/D FOR 20 WK BEGINNING 1 WK POST CARCINOGEN DOSE (STUDY DURATION: 21 WK), Route [Inhibitor]: GAVAGE, Species: RAT, Strain/Sex: SPRAGUE-DAWLEY/FEMALE, Target Tissue: Type of Lesion: MAMMARY GLAND: TUMOR, Dose [Carcinogen]: 5 MG IN 1 ML CORN OIL ONCE
  tumour outcome (control, treated, inhibition, significance): 26/30 (87%), 23/30 (77%), 11%, not significant

## C#C[C@]1(O)CC[C@H]2[C@@H]3CCC4=CC(=O)CC[C@@H]4[C@H]3CC[C@@]21CC (tested in a mixture with another compound)
Carcinogen: 3-METHYLCHOLANTHRENE, 56-49-5, Dose [Inhibitor]: 0, 1/200 OF A PILL CONTAINING 0.25 UG ETHINYLESTRADIOL AND 2.5 UG NORGESTREL 1/D FOR 60 D (STUDY DURATION: 60 D), Route [Inhibitor]: ORAL, Species: MOUSE, Strain/Sex: SWISS/FEMALE, Target Tissue: Type of Lesion: UTERINE CERVIX: TUMOR, Dose [Carcinogen]: 300 UG IN BEESWAX IMPREGNATED COTTON THREAD INSERTED INTO CANAL OF UTERINE CERVIX FOR DURATION OF STUDY
  tumour outcome (control, treated, inhibition, significance): 2/23 (9%), 1/16 (6%), 33%, not significant
Carcinogen: 3-METHYLCHOLANTHRENE, 56-49-5, Dose [Inhibitor]: 0, 1/200 OF A PILL CONTAINING 0.25 UG ETHINYLESTRADIOL AND 2.5 UG NORGESTREL 1/D FOR 90 D (STUDY DURATION: 90 D), Route [Inhibitor]: ORAL, Species: MOUSE, Strain/Sex: SWISS/FEMALE, Target Tissue: Type of Lesion: UTERINE CERVIX: TUMOR, Dose [Carcinogen]: 300 UG IN BEESWAX IMPREGNATED COTTON THREAD INSERTED INTO CANAL OF UTERINE CERVIX FOR DURATION OF STUDY
  tumour outcome (control, treated, inhibition, significance): 6/23 (26%), 1/29 (3%), 88%, p<0.05
Carcinogen: 3-METHYLCHOLANTHRENE, 56-49-5, Dose [Inhibitor]: 0, 1/2000 OF A PILL CONTAINING 0.025 UG ETHINYLESTRADIOL AND 0.25 UG OF NORGESTREL 1/D FOR 60 D (STUDY DURATION: 60 D), Route [Inhibitor]: ORAL, Species: MOUSE, Strain/Sex: SWISS/FEMALE, Target Tissue: Type of Lesion: UTERINE CERVIX: TUMOR, Dose [Carcinogen]: 300 UG IN BEESWAX IMPREGNATED COTTON THREAD INSERTED INTO CANAL OF UTERINE CERVIX FOR DURATION OF STUDY
  tumour outcome (control, treated, inhibition, significance): 2/23 (9%), 0/22 (0%), 100%, not significant
Carcinogen: 3-METHYLCHOLANTHRENE, 56-49-5, Dose [Inhibitor]: 0, 1/2000 OF A PILL CONTAINING 0.025 UG ETHINYLESTRADIOL AND 0.25 UG OF NORGESTREL 1/D FOR 90 D (STUDY DURATION: 90 D), Route [Inhibitor]: ORAL, Species: MOUSE, Strain/Sex: SWISS/FEMALE, Target Tissue: Type of Lesion: UTERINE CERVIX: TUMOR, Dose [Carcinogen]: 300 UG IN BEESWAX IMPREGNATED COTTON THREAD INSERTED INTO THE CANAL OF THE UTERINE CERVIX FOR THE DURATION OF STUDY
  tumour outcome (control, treated, inhibition, significance): 6/23 (26%), 1/30 (3%), 88%, p<0.05

## CCOC(=S)S
Carcinogen: N-NITROSO-DIETHYLAMINE, 55-18-5, Dose [Inhibitor]: 12.5 MG/KG IN DRINKING WATER ADMINISTERED SIMULTANEOUSLY WITH CARCINOGEN (STUDY DURATION: 28 WK), Route [Inhibitor]: ORAL, Species: RAT, Strain/Sex: BD6/MALE, Target Tissue: Type of Lesion: LIVER: TUMOR, Dose [Carcinogen]: 80 MG/KG 1/WK FOR 10 WK
  tumour outcome (control, treated, inhibition, significance): 12/14 (86%), 10/14 (71%), 16%, p>0.05
Carcinogen: N-NITROSO-DIETHYLAMINE, 55-18-5, Dose [Inhibitor]: 25 MG/KG IN DRINKING WATER PLUS 100 MG/KG 1 HR BEFORE CARCINOGEN ADMINISTERED SIMULTANEOUSLY WITH CARCINOGEN (STUDY DURA, Route [Inhibitor]: ORAL, Species: RAT, Strain/Sex: BD6/MALE, Target Tissue: Type of Lesion: LIVER: TUMOR, Dose [Carcinogen]: 80 MG/KG 1/WK FOR 10 WK
  tumour outcome (control, treated, inhibition, significance): 12/14 (86%), 6/12 (50%), 42%, p<0.05

## CSc1ccc(O)cc1
Carcinogen: BENZO[A]PYRENE, 50-32-8, Dose [Inhibitor]: 0.03 MMOL/G OF DIET DAILY STARTING 7 D BEFORE AND CONTINUING THROUGH 3 D AFTER CARCINOGEN TREATMENT FOLLOWED BY OBSERVAT, Route [Inhibitor]: ORAL, Species: MOUSE, Strain/Sex: ICR/FEMALE, Target Tissue: Type of Lesion: FORESTOMACH: NEOPLASM, Dose [Carcinogen]: 1 MG IN 0.2 ML CORN OIL 2/WK FOR 4 WK
  tumour outcome (control, treated, inhibition, significance): 100%, 89%, 11%, not significant
